# Like-named read-outs stand apart in the source and are kept apart here.
# Legend:
# Human GGT1 (hGGT) [1] = molecular target: T1, Human GGT1 (hGGT) (Homo sapiens, UniProt P19440); assay: D-GpNA Hydrolysis Assay (release of pNA, 405 nm, pH 7.4)
# Method: (§1) Enzyme Isolation: Human GGT1 (P19440), lacking the transmembrane domain, was expressed in Pichia pastoris and isolated as previously described (14). […] One unit of GGT activity was defined as the amount of enzyme that released 1 μmol of paranitroaniline/min at 37° C. at pH 7.4 in the transpeptidation reaction.
# The reaction was initiated with the addition of 19 mU GGT. The reaction was incubated at 37° C. and monitored continuously at 405 nm by a Bio-Rad model 680 microplate reader with Microplate Manager 5.2 software (Bio-Rad, Hercules, Calif.).
# Data Analysis: Samples in each experiment were run in triplicate. Each inhibitor was evaluated in two or more independent experiments. Double reciprocal plots were generated to assess data quality and determine the correct rate equation for data fitting. Data were fitted using the proper rate equation and the Marquardt-Levenberg algorithm supplied with the Enzfitter program (BIOSOFT, Cambridge, UK). Kinetic parameters with standard errors were estimated using a simple weighting method.
# Data adhering to Michaelis-Menten Kinetics were fitted to eq. 1. Data for initial rate patterns with D-, L-GpNA varied at different fixed levels of glygly were fitted to eq. […] Data for competitive and uncompetitive inhibition were fitted to eqs. 3 and 4. Data for the dependence of Vmax and Vmax/KD-GpNA on the concentration of activator were fitted using eq. 5 (25).
# In eqs 1-6, Vmax are the initial and maximum rates, respectively, Ka and Kb are Michaelis constants for substrates A and B, respectively, and Kis and Kii are slope and intercept inhibition constants. In eq. 5, a is the value of Vmax or Vmax/KD-GpNA at zero activator/inhibitor, KID is the activation or inhibition constant, and KIN is a constant that causes the parameter to go to a constant value at infinite concentrations of X, the activator/inhibitor. The product a(KID/KIN) is the value of Vmax or Vmax/KD-GpNA at infinite activator/inhibitor (25). Data for noncompetitive inhibition were fitted to eq. 6. Data for the dependence of Vmax and Vmax/KD-GpNA on the concentration of activator were fitted using […].
# as §1, with “hGGT” for “Human GGT1”, “described.” for “described (14).”, “reaction with L-GpNA.” for “reaction.”
# D-GpNA Hydrolysis Assay: The assay was carried out as previously described. […] The reaction was initiated with the addition of 19 mU GGT as determined by the L-GpNA transpeptidation assay. The reaction was incubated at 37° C. and monitored continuously at 405 nm.
# Human GGT1 (hGGT) [2] = molecular target: T1, Human GGT1 (hGGT); assay: L-GpNA Transpeptidation Assay with GlyGly as acceptor; type: biochemical; parameters: lacking the transmembrane domain; made in house; host or cells: Pichia pastoris
# Method: Transpeptidation Reaction: The same assay buffer was used for both the hydrolysis reaction and the transpeptidation reaction. The transpeptidation reaction included 40 mM glycylglycine (glygly, Sigma, St. Louis, Mo.) as the acceptor. […] The concentration of L-GpNA was 3 mM for experiments in which the concentration of glygly was varied. To initiate the transpeptidation reaction, 4 mU GGT were added.
# 1. […] 3 and 4. […] 5 (25).
# L-GpNA Transpeptidation Assay: The assay has been described previously. […] The concentration of L-GpNA was 3 mM for experiments in which the concentration of GlyGly was varied. To initiate the transpeptidation reaction, 4 mU GGT were added.
# [3] = Cytotoxicity in dividing 786-O cells (MTT assay, 72 hours); type: cell-based, human; settings: human, 786-o cells, dividing 786-O cells, 72 hours; read-out: LD50
# Method: (§2) Cell Lines: 786-0 cells (ATCC CRL-1932), a human renal adenocarcinoma cell line, were grown in Dulbecco's Modified Eagle's Medium (DMEM) supplemented with 10% fetal bovine serum (FBS) and penicillin/streptomycin (50 units/ml, 50 μg/ml). NIH3T3 cells (ATCC CRL 1658) which are GGT-negative and NIH3T3 cells expressing hGGT [described previously were grown in DMEM/F12 media supplemented with 5% FBS and 0.2 mg/ml G418.
# (§3) Cytotoxicity Assays: 786-0 cells were plated at 10^3 cells/well in a 96-well plate in DMEM supplemented with 10% FBS and penicillin/streptomycin (50 units/ml, 50 μg/ml). After 24 hours, the media was changed to fresh media containing OU749 analogs. A 100 mM stock of OU749 and each of its analogs were made in DMSO then diluted in DMEM. Control wells were treated with equivalent concentrations of DMSO. Cell viability was determined 72 hours after the addition of the inhibitors by the MTT assay. For the toxicity of the OU749 and its analogs in 786-0 cells, all determinations were done in triplicate. The LD50 of each compound and the standard deviation (S.D.) were calculated with a Prism log (inhibitor) versus normalized response (variable slope) curve fit (Prism, GraphPad Software Inc., San Diego, Calif.).
# 786-0 cells = assay: as above; type: cell-based, human; settings: LD50 ratio, 786-O cells
# Method: as §2, §3
# hGGT = molecular target: T2, hGGT (Homo sapiens, UniProt P19440); assay: L-Glutamate Release Assay (Hydrolysis of GSH); type: biochemical; settings: for Ki: GSH hydrolysis, read-out: GSH Kii
# T2 construct: lacking the transmembrane domain; made in house; host or cells: Pichia pastoris
# T2 sequence (P19440 381-569 limits assumed): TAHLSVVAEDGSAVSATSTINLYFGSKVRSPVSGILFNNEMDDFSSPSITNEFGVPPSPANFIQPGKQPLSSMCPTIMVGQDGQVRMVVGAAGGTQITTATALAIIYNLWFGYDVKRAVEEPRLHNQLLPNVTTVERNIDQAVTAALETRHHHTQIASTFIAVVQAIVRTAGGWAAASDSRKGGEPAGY
# T2 sequence (P19440 27-380 limits assumed): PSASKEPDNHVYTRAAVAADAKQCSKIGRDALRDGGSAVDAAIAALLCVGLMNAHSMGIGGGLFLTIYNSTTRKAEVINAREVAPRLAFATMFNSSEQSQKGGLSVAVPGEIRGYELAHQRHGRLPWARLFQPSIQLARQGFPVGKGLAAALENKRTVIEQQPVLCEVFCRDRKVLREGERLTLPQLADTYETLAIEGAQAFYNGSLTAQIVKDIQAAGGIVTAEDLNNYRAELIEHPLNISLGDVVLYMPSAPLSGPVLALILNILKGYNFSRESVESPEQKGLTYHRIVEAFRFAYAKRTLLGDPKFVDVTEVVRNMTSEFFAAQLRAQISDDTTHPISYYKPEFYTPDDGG
# Method: L-Glutamate Release Assay (Hydrolysis of GSH): This assay measures the production of glutamate from the hydrolysis of GSH by GGT enzyme and has been described in detail previously. The concentration of the substrate, GSH, was varied from 5 μM to 20 μM. The concentration of the inhibitors, OU749 and its analogs, were varied from 15.6 μM to 250 μM. The reaction was initiated with the addition of 10 mU hGGT. […] All compounds were also evaluated as inhibitors of glutamate dehydrogenase, the enzyme in the second half of the L-glutamate release assay. None of the compounds in this study inhibited glutamate dehydrogenase.
# Human GGT1 = molecular target: T3, Human GGT1 (Homo sapiens, UniProt P19440); assay: Initial rate studies with D-GpNA and L-GpNA, with or without acceptor GlyGly; type: biochemical; settings: for second order rate constant: rounded in discussion; for fold increase of Vmax in the presence of GlyGly: plus vs minus GlyGly
# T3 construct: lacking the transmembrane domain; made in house; host or cells: Pichia pastoris
# T3 sequence (P19440 381-569 limits assumed): as the sequence (P19440 381-569 limits assumed) above
# T3 sequence (P19440 27-380 limits assumed): as the sequence (P19440 27-380 limits assumed) above
# Method: Transpeptidation Reaction: The same assay buffer was used for both the hydrolysis reaction and the transpeptidation reaction. The transpeptidation reaction included 40 mM glycylglycine (glygly, Sigma, St. Louis, Mo.) as the acceptor. The concentration of the substrate for the transpeptidation reaction, L-GpNA (Sigma) was varied from 0.25 mM to 3 mM. The concentration of L-GpNA was 3 mM for experiments in which the concentration of glygly was varied. To initiate the transpeptidation reaction, 4 mU GGT were added.
# 1. […] 2, which describes a ping pong kinetic mechanism. […] 3 and 4. […] 5 (25).
# In eq. […] Data for noncompetitive inhibition were fitted to eq. 6. […] 6 [25].
# Initial Rate Studies with D-GpNA and L-GpNA: In this study, the inhibition of both the GGT hydrolysis and transpeptidation reactions by OU749 and a new series of thiadiazol sulfonamide analogs was studied. The hydrolysis and transpeptidation reactions were analyzed separately by using different stereo-isomers of the γ-glutamyl-p-nitroanilide (GpNA) substrate. The kinetics of both reactions were first characterized in the absence of inhibitors. Cleavage of the γ-glutamyl bond of either D-GpNA or L-GpNA releases p-nitroanaline, which has an OD405 of 7,680 M^−1 cm^−1, allowing for the reactions to be monitored continuously with high sensitivity. The D-glutamyl isomer of GpNA was used as the substrate for the hydrolysis reaction, in which water serves as the acceptor. The L-glutamyl isomer of GpNA, with glycylglycine (GlyGly) as an acceptor, was used for the transpeptidation reaction. L-GpNA can serve as both a substrate and a low affinity acceptor, while D-GpNA is unable to serve as an acceptor (18, 21, 26). Therefore, in the absence of an added acceptor GGT exclusively catalyzes a hydrolysis reaction with D-GpNA as the substrate. When L-GpNA is used as a substrate, the GGT reaction is a mixture of both the hydrolysis and transpeptidation reactions. Under these conditions, the rate of the reaction is the sum of hydrolysis and transpeptidation reactions, with the hydrolysis reaction contributing more at low L-GpNA concentrations and transpeptidation dominating at saturating substrate concentrations. […] However, the maximum rate (Vmax) obtained with L-GpNA was approximately 3-times faster than that measured with D-GpNA, and the KGpNA for L-GpNA was 5-times higher than that measured for D-GpNA. This is at least partially due to the ability of L-GpNA to serve as an acceptor, resulting in a transpeptidation reaction, which is faster than the hydrolysis reaction. Therefore, to study the hydrolysis reaction in isolation, D-GpNA was used as the substrate without any added acceptor.
# [4] = Table 5, read-out: GlyGly with L-GpNA Kis
# [5] = Table 5, read-out: L-GpNA with GlyGly Kii
# T1 sequence (P19440 381-569 limits assumed): as the sequence (P19440 381-569 limits assumed) above
# T1 sequence (P19440 27-380 limits assumed): as the sequence (P19440 27-380 limits assumed) above
smiles,measurement,setting,value
COc1ccc(Cc2nnc(NS(=O)(=O)c3cccc(Cl)c3)s2)cc1 [Compound 3],Ki,Human GGT1 (hGGT) [1],74.9 ± 2.2 µM
same,Ki,"Human GGT1 (hGGT) [2]; GlyGly varied, 3 mM L-GpNA, Table 2, read-out: Transpeptidation GlyGly Kis",11.9 ± 1.1 µM
same,Ki,"Human GGT1 (hGGT) [2]; L-GpNA varied, 40 mM GlyGly, Table 2, read-out: Transpeptidation L-GpNA Kii",22 ± 0.7 µM
same,CC50 at 72 h,[3],382 µM
same,fold less toxic (cytotoxic) than OU749,786-0 cells,3 fold
same,Ki,hGGT; Table 6,67 ± 6 µM
same,fold more potent than OU749 in inhibiting GSH hydrolysis,hGGT; relative to OU749,5.6 fold
Cc1ccc(Cc2nnc(NS(=O)(=O)c3ccc(N)cc3)s2)cc1 [Compound 22],Ki,Human GGT1 (hGGT) [1],31 ± 1 µM
same,Ki,Human GGT1 (hGGT) [2]; [4],6 ± 1 µM
same,Ki,Human GGT1 (hGGT) [2]; [5],30 ± 4 µM
same,CC50 at 72 h,[3],727 ± 0.02 µM
same,Ki,hGGT; Table 5,82 ± 13 µM
CN(C)c1ccc(Cc2nnc(NS(=O)(=O)c3ccc(N)cc3)s2)cc1 [Compound 27],Ki,Human GGT1 (hGGT) [1],180 ± 5 µM
same,Ki,Human GGT1 (hGGT) [2]; [4],24 ± 4 µM
same,Ki,Human GGT1 (hGGT) [2]; [5],275 ± 12 µM
same,Ki,hGGT; Table 5,363 ± 35 µM
Nc1ccc(S(=O)(=O)Nc2nnc(Cc3ccc(Cl)cc3)s2)cc1 [Compound 28],Ki,Human GGT1 (hGGT) [1],56 µM
same,Ki,Human GGT1 (hGGT) [2]; [4],7 ± 1 µM
same,Ki,Human GGT1 (hGGT) [2]; [5],54 ± 1 µM
same,Ki,hGGT; Table 5,419 ± 27 µM
Nc1ccc(S(=O)(=O)Nc2nnc(Cc3ccc(Cl)c(Cl)c3)s2)cc1 [Compound 29],Ki,Human GGT1 (hGGT) [1],32 ± 1 µM
same,decrease of Kis as competitive inhibitor of GlyGly relative to OU749,Human GGT1 (hGGT) [2],up to 11 fold
same,Ki,Human GGT1 (hGGT) [2]; [4],5 ± 1 µM
same,Ki,Human GGT1 (hGGT) [2]; [5],34 ± 4 µM
same,Ki,hGGT; Table 5,905 ± 53 µM
COc1ccc(Cc2nnc(NS(=O)(=O)c3ccc4ccccc4c3)s2)cc1 [Compound 30],Ki,Human GGT1 (hGGT) [1],415 ± 50 µM
same,Ki,"Human GGT1 (hGGT) [2]; Table 6, read-out: GlyGly with L-GpNA Kis",143 ± 20 µM
same,Ki,"Human GGT1 (hGGT) [2]; Table 6, read-out: L-GpNA with GlyGly Kii",364 ± 43 µM
same,Ki,hGGT; Table 6,206 ± 37 µM
same,fold less potent than Compound 6 in inhibiting catabolism of GSH,hGGT; relative to Compound 6,2.1 fold
"N[C@H](CCC(=O)Nc1ccc([N+](=O)[O-])cc1)C(=O)O [D-GpNA, D-gamma-glutamyl para-nitroanalide]",V,Human GGT1; minus acceptor,2.1 ± 0.2 mM/min/nM
same,V/KGpNA,Human GGT1; minus acceptor,2.2e+08 ± 1.7e+06 M⁻¹ s⁻¹
same,second order rate constant,Human GGT1; minus acceptor,2.17e+08 M⁻¹ s⁻¹
same,KGlyGly,Human GGT1; plus acceptor GlyGly,7.0 ± 0.3 mM
same,V,Human GGT1; plus acceptor GlyGly,53 ± 11 mM/min/nM
same,V/KGlyGly,Human GGT1; plus acceptor GlyGly,1.27e+08 ± 2.5e+07 M⁻¹ s⁻¹
same,V/KGpNA,Human GGT1; plus acceptor GlyGly,2.12e+08 ± 4.17e+07 M⁻¹ s⁻¹
same,fold increase of Vmax in the presence of GlyGly,Human GGT1,25 fold
"N[C@@H](CCC(=O)N[C@@H](CS)C(=O)NCC(=O)O)C(=O)O [GSH, glutathione, reference compound]",Ki,Human GGT1 (hGGT) [1],10 ± 1.2 µM
same,Ki,"Human GGT1 (hGGT) [2]; in the presence of 3 mM L-GpNA, read-out: Kii of GSH vs GlyGly",3000 ± 500 µM
same,Ki,"Human GGT1 (hGGT) [2]; in the presence of 3 mM L-GpNA, read-out: Kis of GSH vs GlyGly",800 ± 100 µM
same,Ki,"Human GGT1 (hGGT) [2]; in the presence of 40 mM GlyGly, read-out: Kii of GSH vs L-GpNA",1700 ± 20 µM
same,Ki,"Human GGT1 (hGGT) [2]; in the presence of 40 mM GlyGly, read-out: Kis of GSH vs L-GpNA",1400 ± 10 µM
same,Ki,"Human GGT1; absence of GlyGly, read-out: Kis of GSH vs L-GpNA",73 ± 6 µM
"N[C@@H](CCC(=O)Nc1ccc([N+](=O)[O-])cc1)C(=O)O [L-GpNA, L-gamma-glutamyl para-nitroanilide]",KGpNA relative to D-GpNA,Human GGT1; minus acceptor,5 times
same,V,Human GGT1; minus acceptor,6.5 ± 0.2 mM/min/nM
same,V/KGpNA,Human GGT1; minus acceptor,1.3e+08 ± 3.3e+06 M⁻¹ s⁻¹
same,second order rate constant,Human GGT1; minus acceptor,1.3e+08 M⁻¹ s⁻¹
same,KGlyGly,Human GGT1; plus acceptor GlyGly,9.9 ± 0.9 mM
same,V,Human GGT1; plus acceptor GlyGly,141 ± 11 mM/min/nM
same,V/KGlyGly,Human GGT1; plus acceptor GlyGly,2.33e+08 ± 1.7e+07 M⁻¹ s⁻¹
same,V/KGpNA,Human GGT1; plus acceptor GlyGly,1.95e+09 ± 1.5e+08 M⁻¹ s⁻¹
same,fold increase of Vmax in the presence of GlyGly,Human GGT1,22 fold
